Laboratory results taken from US12202849B2, “Crystalline forms of tenofovir alafenamide” (Gilead Sciences, Inc., priority 2017, dated 2025).

Details: deionized water, approximately 22° C., room temperature
Method: In a vial that contains pre-weighed amount of solid, deionized water was added in small increments at approximately 22° C. The solid/liquid mixture was agitated by a vortex mixer and held at room temperature. Continued to add deionized water and repeated the mixing until the solid was fully dissolved.

## tenofovir alafenamide hemifumarate [TAF Hemifumarate]
  Solubility: 20 mg/mL
